Molecular target: T1, GST-tagged Tnks-2 (873-1166 aa) (Homo sapiens, UniProt Q9H2K2)
T1 construct: GST-tagged Tnks-2 (873-1166 aa, prepared in-house); made in house
Experiment: TNKS2 activity ELISA (autoparsylation)
Assay type: biochemical
Conditions: activity ELISA, 1 hour at 30° C; read-out: IC50 TNKS2 ELISA
Method: Description of the TNKS1 and TNKS2 ELISA Assay
Biochemical Activity Testing of TNKS 1 and 2: Activity ELISA (Autoparsylation Assay)
For analysis of autoparsylation activity of TNKS 1 and 2 an activity ELISA is performed: In the first step GST tagged TNKS is captured on a Glutathione coated plate. Then the activity assay with biotinylated NAD is performed in the absence/presence of the compounds. During the enzymatic reaction GST tagged TNKS transfers biotinylated ADP-ribose to itself from biotinylated NAD as co-substrate. For the detection streptavidin-HRP conjugate is added that binds to the biotinylated TNKS and is thereby captured to the plates. The amount of biotinylated resp. autoparsylated TNKS is detected with a luminescence substrate for HRP. The level of the luminescence signal correlates directly with the amount of autoparsylated TNKS and therefore with activity of TNKS.
The activity ELISA is performed in 384 well Glutathione coated microtiter plates (Express capture Glutathione coated plate, Biocat, Heidelberg, Germany). The plates are pre-equilibrated with PBS. Then the plates are incubated with 50 μl 20 ng/well GST-tagged Tnks-1 (1023-1327 aa, prepared in-house), respectively GST-tagged Tnks-2 (873-1166 aa, prepared in-house) in assay buffer (50 mM HEPES, 4 mM Mg-chloride, 0.05% Pluronic F-68, 2 mM DTT, pH 7.7) overnight at 4° C. The plates are washed 3 times with PBS-Tween-20. The wells are blocked by incubation at room temperature for 20 minutes with 50 μl blocking buffer (PBS, 0.05% Tween-20, 0.5% BSA). Afterwards the plates are washed 3 times with PBS-Tween-20. The enzymatic reaction is performed in 50 μl reaction solution (50 mM HEPES, 4 mM Mg-chloride, 0.05% Pluronic F-68, 1.4 mM DTT, 0.5% DMSO, pH 7.7) with 10 μM bio-NAD (Biolog, Life science Inst., Bremen, Germany) as co-substrate in the absence or presence of the test compound (10 dilution concentrations) for 1 hour at 30° C. The reaction is stopped by 3 times washing with PBS-Tween-20. For the detection 50 μl of 20 ng/μl Streptavidin, HRP conjugate (MoBiTec, Göttingen, Germany) in PBS/0.05% Tween-20/0.01% BSA are added and the plates are incubated for 30 minutes at room temperature. After three times washing with PBS-Tween-20 50 μl of SuperSignal ELISA Femto Maximum sensitivity substrate solution (ThermoFisherScientific (Pierce), Bonn, Germany) are added. Following a 1 minute incubation at room temperature luminescence signals are measured with an Envision multimode reader (Perkin Elmer LAS Germany GmbH) at 700 nm. The full value used is the inhibitor-free reaction. The pharmacological zero value used is XAV-939 (Tocris) in a final concentration of 5 μM. The inhibitory values (IC50) are determined using either the program Symyx Assay Explorer® or Condosseo® from GeneData.

T1 sequence (Q9H2K2 873-1166): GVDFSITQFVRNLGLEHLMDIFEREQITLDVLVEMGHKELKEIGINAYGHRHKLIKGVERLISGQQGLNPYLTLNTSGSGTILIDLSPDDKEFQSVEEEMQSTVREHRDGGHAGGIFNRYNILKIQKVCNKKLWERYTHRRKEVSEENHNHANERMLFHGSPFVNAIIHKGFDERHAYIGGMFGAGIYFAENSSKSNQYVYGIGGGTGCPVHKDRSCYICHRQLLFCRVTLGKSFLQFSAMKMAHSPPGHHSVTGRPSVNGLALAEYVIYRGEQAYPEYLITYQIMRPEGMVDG

| SMILES | IC50 [nM] |
| --- | --- |
| COc1cccc(CC(=O)Nc2nncc3ccccc23)c1 [Compound A2, 2-(3-methoxyphenyl)-N-phthalazin-1-yl-acetamide] | 300 to 3000 |
| COc1ccc(CC(=O)Nc2nncc3ccccc23)cc1 [Compound A3, 2-(4-methoxyphenyl)-N-phthalazin-1-yl-acetamide] | < 300 |
| Cc1cccc2cnnc(NC(=O)Cc3ccccc3)c12 [Compound A18, N-(8-methyl-phthalazin-1-yl)-2-phenyl-acetamide] | < 300 |

Continued, values first:

| IC50 [nM] | SMILES |
| --- | --- |
| 300 to 3000 | O=C(Cc1ccccc1)Nc1nncc2ccccc12 [Compound A1, 2-phenyl-N-phthalazin-1-yl-acetamide] |
| < 300 | CCOc1ccc(CC(=O)Nc2nncc3ccccc23)cc1 [Compound A4, 2-(4-ethoxyphenyl)-N-phthalazin-1-yl-acetamide] |
| < 300 | O=C(CCC1CCCC1)Nc1nncc2ccccc12 [Compound A15, 3-cyclopentyl-N-phthalazin-1-yl-propionamide] |
| < 300 | O=C(CCc1ccccc1Cl)Nc1nncc2ccccc12 [Compound A16, 3-(2-chloro-phenyl)-N-phthalazin-1-yl-propionamide] |
| < 300 | COc1ccc(CC(=O)Nc2nncc3cccc(C)c23)cc1 [Compound A20, 2-(4-methoxy-phenyl)-N-(8-methyl-phthalazin-1-yl)-acetamide] |

From US9751842B2, “Phthalazine derivatives” (Merck Patent GmbH, priority 2013, dated 2017)
